Experimental data from patent publication US6617350B2, “Inhibitors of aspartyl protease” (priority 1999, dated 2003).
Like-named read-outs stand apart in the source and are kept apart here.

How the values were obtained:
HIV-1 (strain IIIB) = experiment: microbe, parasite or virus in culture; type: cell-based; conditions: anti-viral potency in MT-4 cells, read-out: IC50
HIV-1 protease = HIV-1 protease (Human immunodeficiency virus type 1 group M subtype B, UniProt P04585); experiment: biochemical
[1] = Human immunodeficiency virus 1, IIIB, MT4, Table 12
[2] = Table 12, HIV-1 protease, read-out: Ki

Compound | IC50 (HIV-1 (strain IIIB); [1]) [nM] | Ki (HIV-1 protease; [2]) [nM] | Ki (HIV-1 protease) [nM] | IC50 (HIV-1 (strain IIIB); Table 12) [nM]
COC(=O)NCCCC(C)(C)CN(C[C@@H](O)[C@H](Cc1ccccc1)NC(=O)O[C@H]1CO[C@H]2OCC[C@H]21)S(=O)(=O)c1ccc2c(c1)OCCO2 [Compound 265, (3R,3aS,6aR)hexahydrofuro[2,3-b]furan-3-yl N-[(1S,2R)-1-benzyl-3-((2,3-dihydro-1,4-benzodioxin-6-ylsulfonyl)5-[(methoxycarbonyl)amino]-2,2-dimethylpentylamino)-2-hydroxypropyl]carbamate] | ≤ 100 | < 1 | – | –
CN(C)C(=O)NCCCC(C)(C)CN(CC(O)C(Cc1ccccc1)NC(=O)OC1COC2OCCC12)S(=O)(=O)c1ccc2c(c1)OCO2 [Compound 266, (3R,3aS,6aR)hexahydrofuro[2,3-b]furan-3-yl N-(1S,2R)-3-[(1,3-benzodioxol-5-ylsulfonyl)(5-[(dimethylamino)carbonyl]amino-2,2-dimethylpentyl)amino]-1-benzyl-2-hydroxypropylcarbamate] | ≤ 100 | < 1 | – | –
CNc1cccc(S(=O)(=O)N(C[C@@H](O)[C@H](Cc2ccccc2)NC(=O)O[C@H]2CO[C@H]3OCC[C@H]32)CC(C)(C)CCCNC(=O)N(C)C)c1 [Compound 267, (3R,3aS,6aR)hexahydrofuro[2,3-b]furan-3-yl N-[(1S,2R)-1-benzyl-3-((5-[(dimethylamino)carbonyl]amino-2,2-dimethylpentyl)[3-(methylamino)phenyl]sulfonylamino)-2-hydroxypropyl]carbamate] | ≤ 100 | < 1 | – | –
CN(C)C(=O)NCCCC(C)(C)CN(CC(O)C(Cc1ccccc1)NC(=O)OC1COC2OCCC12)S(=O)(=O)c1ccc2c(c1)OCCO2 [Compound 268, (3R,3aS,6aR)hexahydrofuro[2,3-b]furan-3-yl N-(1S,2R)-1-benzyl-3-[(2,3-dihydro-1,4-benzodioxin-6-ylsulfonyl)(5-[(dimethylamino)carbonyl]amino-2,2-dimethylpentyl)amino]-2-hydroxypropylcarbamate] | ≤ 100 | < 1 | – | –
CC(C)(CCCNS(C)(=O)=O)CN(C[C@@H](O)[C@H](Cc1ccccc1)NC(=O)O[C@H]1CO[C@H]2OCC[C@H]21)S(=O)(=O)c1ccc2c(c1)OCO2 [Compound 269, (3R,3aS,6aR)hexahydrofuro[2,3-b]furan-3-yl N-[(1S,2R)-3-((1,3-benzodioxol-5-ylsulfonyl)2,2-dimethyl-5-[(methylsulfonyl)amino]pentylamino)-1-benzyl-2-hydroxypropyl]carbamate] | ≤ 100 | < 1 | – | –
CNc1cccc(S(=O)(=O)N(CC(O)C(Cc2ccccc2)NC(=O)OC2COC3OCCC23)CC(C)(C)CCCNS(C)(=O)=O)c1 [Compound 270, (3R,3aS,6aR)hexahydrofuro[2,3-b]furan-3-yl N-[(1S,2R)-1-benzyl-3-((5-[(methylsulfonyl]amino-2,2-dimethylpentyl)[3-(methylamino)phenyl]sulfonylamino)-2-hydroxypropyl]carbamate] | ≤ 100 | < 1 | – | –
CC(C)(CCCNS(C)(=O)=O)CN(C[C@@H](O)[C@H](Cc1ccccc1)NC(=O)O[C@H]1CO[C@H]2OCC[C@H]21)S(=O)(=O)c1ccc2c(c1)OCCO2 [Compound 271, (3R,3aS,6aR)hexahydrofuro[2,3-b]furan-3-yl N-[(1S,2R)-3-((2,3-dihydro-1,4-benzodioxin-6-ylsulfonyl)2,2-dimethyl-5-[(methylsulfonyl)amino]pentylamino)-1-benzyl-2-hydroxypropyl]carbamate] | ≤ 100 | < 1 | – | –
CNC(=O)OCCCC(C)(C)CN(CC(O)[C@H](Cc1ccccc1)NC(=O)OC1COC2OCCC12)S(=O)(=O)c1ccc2c(c1)OCO2 (stereo partly drawn) [Compound 272, (3R,3aS,6aR)-Hexahydrofuro[2,3-b]furan-3-yl N-((1S,2R)-1-benzyl-3-[2,2-dimethyl-5-(N′-methylcarbamoyloxypentyl)][(3,4-methylenedioxyphenyl)sulfonyl]amino-2-hydroxypropyl)carbamate] | ≤ 100 | – | < 1 | –
COc1ccc(S(=O)(=O)N(C[C@@H](O)[C@H](Cc2ccccc2)NC(=O)OC2COCOC2)CC(C)(C)CCC(N)=O)cc1 [Compound 273, {(1S,2R)-1-Benzyl-3-[(4-carboxamide-2,2-dimethyl-butyl)-(4-methoxy-benzenesulfonyl)-amino]-2-hydroxy-propyl}-carbamic acid [1,3]dioxan-5-yl ester] | 100 to 500 | < 1 | – | –
COC(=O)CCC(C)(C)CN(C[C@@H](O)[C@H](Cc1ccccc1)NC(=O)OC1COCOC1)S(=O)(=O)c1ccc(OC)cc1 [Compound 274, {(1S,2R)-1-Benzyl-3-[(4-carbomethoxy-2,2-dimethyl-butyl)-(4-methoxy-benzenesulfonyl)-amino]-2-hydroxy-propyl}-carbamic acid[1,3]dioxan-5-yl ester] | 100 to 500 | < 1 | – | –
COc1ccc(S(=O)(=O)N(CCC(C)=O)C[C@@H](O)[C@H](Cc2ccccc2)NC(=O)O[C@H]2CO[C@H]3OCC[C@H]32)cc1 [Compound 280, {(1S,2R)-3-[(4-methoxybenzenesulfonyl)-(3-butanonyl)-amino]-1-benzyl-2-hydroxy-propyl}-carbamic acid (3R,3aS,6aR)hexahydro-furo[2,3-b]furan-3-yl ester] | 100 to 500 | < 1 | – | –
COc1ccc(S(=O)(=O)N(CCC(C)=O)C[C@@H](O)[C@H](Cc2ccccc2)NC(=O)OC2COCOC2)cc1 [Compound 281] | 100 to 500 | 1 to 10 | – | –
tert-Butyl N-(1S,2R)-1-benzyl-3-(4-cyanobutyl)[(4-methoxyphenyl)sulfonyl]amino-2-hydroxypropyl)carbamate [Compound 4] | – | 1 to 10 | – | 100 to 500
